Patent US20260227303A1, “SYSTEMS AND METHODS FOR MEASURING PARTICLE SIZE IN TISSUE AND TURBID MEDIA” (The General Hospital Corporation, priority 2023, published 2026)

System: platelets in whole blood
Test: Platelet function testing: laser speckle particle sizing of platelet aggregate size in lysed whole blood
Type: cell-based, human
Protocol: To prepare the 4660 μM CPD stock solution, a Plavix tablet (e.g., 75 mg, Bristol-Meyer Squibb) was crushed to powder, mixed with 50 ml of deionized water, sonicated for 10 minutes, and incubated at 50° C. in a water bath for 3 minutes. Following institutional review board (IRB) approval, de-identified blood specimens from two patients undergoing routine coagulation testing were collected in 0.105 M sodium citrate vacutainer system (e.g., Becton & Dickinson, Co., Franklin Lakes, NJ, USA) from the MGH special coagulation laboratory. The specimen was divided into four samples of 66 μl. The first sample (control) was mixed with 20 μl of saline. The second sample was mixed 5 μl of saline and 10 μl of LB. The third sample was mixed with 5 μl of saline and 10 μl of LB, and 5 μl ADP stock solution (e.g., 5 μM, Helena Laboratories, Beaumont, TX, USA). Finally, the 4th and last sample was mixed 10 μl of LB 5 μl of ADP and 5 μl of diluted CPD (5 μM). The samples were loaded in imaging chambers and speckle image acquisition started promptly. For each of the specimens, both the parallel and perpendicularly polarized speckle frames were captured for 1 second, at 750 fps.
The third sample entailed 66 μl of whole blood plus 5 μl of PBS, 10 μl of lysis buffer, and 5 μl Adenosine diphosphate (ADP), a platelet agonist to initiate platelet aggregation. […]

Compound | estimated particle size (average radius) (66 μl whole blood + 10 μl RBC lysis buffer + 5 μl ADP + 5 μl CPD, reverts to the lysed-blood level (360 nm), potentially indicating disaggregation of platelets) | estimated particle size (average radius) (66 μl whole blood + 5 μl PBS/saline + 10 μl RBC lysis buffer + 5 μl ADP, lysed blood without ADP 360 nm, increase likely reflects platelet aggregation)
COC(=O)[C@H](c1ccccc1Cl)N1CCc2sccc2C1 [CPD, clopidogrel bisulphate] | 367 nm | –
Nc1ncnc2c1ncn2[C@@H]1O[C@H](COP(=O)(O)OP(=O)(O)O)[C@@H](O)[C@H]1O [ADP, Adenosine diphosphate] | – | 1.8 μm
